From patent US20240206469A1, “PHOSPHORUS USE EFFICIENCY ENHANCERS AS PLANT GROWTH PROMOTORS” (EUROCHEM ANTWERPEN, priority 2021, published 2024)

Experiments:
Format in all cases: in vivo, Arabidopsis thaliana
Arabidopsis [1] = test: Arabidopsis pot experiment (rosette size, soil phosphate, anthocyanin)
Protocol: Regular Arabidopsis, soybean and maize pot experiments used an unfertilized potting soil, which was supplemented at the start of the experiment with 50 ml H2O containing 0.25 g/l NH4NO3 and 0.44 g/l (high phosphate) or no (maize and soybean) or 0.11 g/l KH2PO (Arabidopsis) for low phosphate conditions. For the sand-based maize pot experiment, sand was supplemented with 50 ml H2O containing 0.25 g/l NH4NO3 and 0.38 g/l (high phosphate) or 0.02 g/l (low phosphate) KH2PO4. Potassium was balanced via addition of KCl. Compound concentration was 10 μM, calculated based on the total water content after watering, and was added at the start of the experiment (Arabidopsis) or once a week (maize). Indexed chlorophyll contents were received via a SPAD 502 Plus Chlorophyll Meter. All parameters in the sand experiment, except the rate of leaf 4 (measured the first 4 days after emergence), were measured 19 days after sowing. Measurements in the pot experiments with potting soil were done after 4 weeks of growth, except for leaf 5, which was measured at 26 days. One long-term maize pot experiment was conducted with the DKC 2931 (2.5 months) and B104 (3 months) cultivars on the PHENOVISION phenotyping platform as described in Frontiers in Plant Science 2021, 12: 640914, except that an unfertilized potting soil was used and that plants were fertilized with a low-phosphate Hoagland solution. The 2.5× overconcentrated low-phosphate Hoagland solution contained 0.034 g/l KH2PO and 200 mL of this solution was applied twice a week. 1.4 mL of a 10 mM compound solution was added each two weeks to each pot, corresponding to 9.6 mg/g nutrients. 13 plants per condition were used. During the experiment, pictures were taken twice a week for each plants from 6 different angles and the top. […] Extraction and quantification of anthocyanin levels was carried out according to The Plant cell 2013, 25:1641-1656. Anthocyanin levels were quantified by measuring absorption at 530 and 657 nm using a spectrophotometer and normalized to fresh weight input, and expressed relative to the low phosphate control. […]

Arabidopsis root hairs = test: Root hair number and length quantification
Protocol: (§1) All Arabidopsis plant experiments were performed using the Arabidopsis thaliana Columbia-0 background. The Arabidopsis pSPX1::GUS line is described in the Plant Journal 2008, 54: 965-975. For rice, the cultivar Nipponbare was used. For maize, the cultivars DKC 2931 and B104 were used for regular pot experiments and sand-based pot experiments, respectively. For soybean, the cultivar Primus was used. […] The medium was solidified due to the addition of 0.6% Gelrite, unless stated otherwise. In case of vertical plates (root length and root hair measurements), the medium was supplied with 0.5% of sucrose and 1 μM (low phosphate, 1 μM KH2PO4, 9.9 mM KCl), 10 μM (low phosphate 10 μM KH2PO4, 9.9 mM KCl) or 1.25 mM KH2PO4 (high phosphate). Arabidopsis seeds were stratified for 2 days at 4° C. before germination. Seedlings were germinated in climate-controlled growth chambers at 22° C. under continuous light (100 μmol m^−2 s^−1). Husked rice seeds were germinated on wetted Whatman paper for 2 days at 37° C. and then transferred to Sterivent boxes or square Petri dishes with solid medium. Maize and soybean seeds were wetted 24 hours at room temperature prior to sowing in pots.
Roots were imaged using a stereomicroscope or a VHX-6000. Number and length of the root hairs parallel to the medium surface was determined at 4 to 6 mm above the root meristem. Root hair length was measured using the ImageJ software.

Arabidopsis [2] = test: Arabidopsis vertical plate growth assay (primary root length, shoot biomass); settings: 10 μM, low phosphate
Protocol: as §1
Arabidopsis primary root growth experiments were done on MS1/2 on vertical standing plates and roots were measured 11 days after germination. Roots were imaged using a flatbed scanner (EPSON Expression 11000XL) and root length was measured using ImageJ software. Arabidopsis shoot biomass was determined in 11 days after germination and growth on vertical standing plates with modMS. Arabidopsis leaf area was measured 21 days after germination on horizontal plates with modMS medium. Plates were scanned from the top using a flatbed scanner (EPSON Expression 11000XL) and the visible leaf area was measured using ImageJ software. Rice plate experiments used vertically standing Petri dishes containing MS1/2 medium (low phosphate—0.001 mM) solidified with 0.8% washed agar. Plant height was measured 11 days after germination. […] Plant height was measured 13 days after germination. […]

CC1CN(CC(=O)c2c(N)n(C)c(=O)n(C)c2=O)c2ccccc2O1 (centres unmarked) [Compound 8, 6-amino-1,3-dimethyl-5-[2-(2-methyl-2,3-dihydro-1,4-benzoxazin-4-yl)acetyl]pyrimidine-2,4-dione]
Relative anthocyanin level (Arabidopsis [1]; 4-week old plant, relative to low phosphate control = 1): 0.6
Phosphate level in soil (relative value) (Arabidopsis [1]; after 4 weeks of growth, relative to low phosphate control = 1): 0.8
Rosette size (Arabidopsis [1]; low phosphate, 10 μM, 4 weeks, control 17): 25 cm^2
activity at 0.6 µM (Arabidopsis root hairs; Arabidopsis thaliana, 0.6 μM, read-out: Total root hair length per root (in % compared to the control)): 104%
activity at 1.25 µM (Arabidopsis root hairs; Arabidopsis thaliana, 1.25 μM, read-out: Total root hair length per root (in % compared to the control)): 333%
activity at 2.5 µM (Arabidopsis root hairs; Arabidopsis thaliana, 2.5 μM, read-out: Total root hair length per root (in % compared to the control)): 347%
activity at 5 µM (Arabidopsis root hairs; Arabidopsis thaliana, 5 μM, read-out: Total root hair length per root (in % compared to the control)): 485%
activity at 10 µM (Arabidopsis root hairs; Arabidopsis thaliana, 10 μM, read-out: Total root hair length per root (in % compared to the control)): 586%
Average root hair length per root in high phosphate conditions (Arabidopsis root hairs; Arabidopsis vertical plate, high phosphate, control 0.11): 0.32 mm
Root hair number in high phosphate conditions (one plane in 2 mm region) (Arabidopsis root hairs; Arabidopsis vertical plate, high phosphate, control 3): 9
Total root hair length per root in high phosphate conditions (Arabidopsis root hairs; Arabidopsis vertical plate, high phosphate, control 57): 183 cm
Primary root length versus control without compound (Arabidopsis [2]; 11-day-old Arabidopsis): almost double the length of the control
Primary root length (Arabidopsis [2]; Arabidopsis vertical plate, 11 days after germination, control 1.8): 3.5 cm
Shoot biomass (Arabidopsis [2]; Arabidopsis vertical plate, 11 days after germination, control 11): 21 mg
